Laboratory results as given in PMC4504005, “Structural Basis for Receptor Activity-Modifying Protein-Dependent Selective Peptide Recognition by a G Protein-Coupled Receptor” (Molecular cell, 2015).
Where two headings read alike, the source gives them in different places. Ends that are not written are not given here.

Legend:
[1] = target: T1, MBP-RAMP2 ECD [L106R]-(GSA)3-CLR ECD-H6 (Homo sapiens, UniProt O60895+Q16602, L106R); test: Competition AlphaScreen, AM1 receptor ECD complex [L106R]; assay type: binding; details: for binding of swap peptide: competition AlphaScreen, Figures 6H-6J
T1 construct: MBP-hRAMP2.55-140 [L106R]-(Gly-; Ser-Ala)3-hCLR.29-144-H6 proteins; made in house; host or cells: E. coli (co-expressed with DsbC)
Source text: (§1) Plasmid construction, mutagenesis, protein expression, purification, and the AlphaScreen peptide-binding assay were as previously described with minor modifications to the AlphaScreen assay ([Hill and Pioszak, 2013]; [Moad and Pioszak, 2013]). Synthetic peptides were from RS Synthesis, Bachem, or were synthesized in-house. Details are in Supplemental Experimental Procedures.
(§2) Supplemental Experimental Procedures
(§3) Plasmid construction and protein production and characterization. Bacterial pETDuet1 […]
(§4) numbers indicated) fusion proteins co-expressed with DsbC were constructed using the Gibson Assembly cloning method with Gibson Assembly master mix (New England […]
(§5) 2014). Site directed mutagenesis was performed with the QuikChange II kit (Agilent) or using the Gibson Assembly method. Primer sequences are available upon request. All constructs were verified by automated DNA sequencing.
(§6) The tethered ECD fusion proteins were expressed in E. coli, purified, and characterized for peptide binding with an AlphaScreen peptide binding assay as previously described (Moad and Pioszak, 2013), except that the AlphaScreen competition assays also included 0.3% (v/v) Triton X-100 in the reaction buffer. Triton X-100 […]
(§7) reactions in which the donor and acceptor beads were brought together by a Biotin-(Gly)6-(His)6 peptide. The binding experiments were conducted at least three times with each independent experiment performed with duplicate samples. pIC50 values are stated as the mean of the replicate independent experiments ± S.E.M. Although slight variation […]
(§8) Peptides. […]

[2] = target: T2, MBP-RAMP2 ECD-(GS)5-CLR ECD-H6 (WT RAMP2 ECD-CLR ECD fusion) (Homo sapiens, UniProt O60895+Q16602); test: Competition AlphaScreen, WT RAMP2 ECD-CLR ECD fusion; assay type: binding; details: text (Fig S1C), approximate
T2 construct: MBP-hRAMP2.55-140-(Gly-Ser-Ala)3-hCLR.29-144-H6; made in house; host or cells: E. coli
Source text: as §1, §2, §3
(§9) numbers indicated) fusion proteins co-expressed with DsbC were constructed using the Gibson Assembly cloning method with Gibson Assembly master mix (New England Biolabs). Plasmids for expression of tagged full-length CLR and RAMP1 or -2 receptors in mammalian cells were previously described (Barwell et al., 2010; Watkins et al., 2014). Site directed mutagenesis was performed with the QuikChange II kit (Agilent) or using the Gibson Assembly method. Primer sequences are available upon request. All constructs were verified by automated DNA sequencing.
as §6

[3] = target: T3, MBP-RAMP1 ECD-(GSA)3-CLR ECD-H6 (Homo sapiens, UniProt O60894+Q16602); test: Competition AlphaScreen, CGRP receptor ECD complex; assay type: binding; details: for binding of swap peptide: competition AlphaScreen, Figures 6E-6G, 100 nM protein, 100 nM biotin-CGRP
T3 construct: made in house; host or cells: E. coli (co-expressed with DsbC)
Source text: as §1, §2, §3, §4, §5, §6, §7, §8

[4] = tested on: MBP-hRAMP1.24-111-(Gly-Ser-Ala)3-hCLR.29-144-H6; test: Apparent aggregation in AlphaScreen competition assay, RAMP1-(GSA)3-CLR protein; assay type: physicochemical, human; details: reaction buffer with 0.3% (v/v) Triton X-100, which minimized but did not completely prevent it; data not shown
Source text: as §2, §3, §9, §6
Ser-Ala)3-hCLR.29-144-H6 proteins (data not shown).
CGRP analog prevented it from fully competing the binding signal to background levels […]
receptor crystallization construct are likely a bit higher than the true values. Competitor

[5] = Figure 6I, 100 nM protein, 100 nM biotin-AM, 0.3% Triton X-100, mean ± SEM, at least three independent experiments in duplicate, read-out: pIC50 (converted)
[6] = 100 nM protein, 100 nM biotin-AM

Row | IC50 [1, 5] [µM] | Molecule | binding of swap peptide [1, 6] | binding of swap peptide [3] | also measured
1 | 14.5 | CC[C@H](C)[C@H](NC(=O)[C@H](CCC(N)=O)NC(=O)[C@H](Cc1c[nH]cn1)NC(=O)[C@H](C)NC(=O)[C@H](CC(C)C)NC(=O)[C@H](CCCCN)NC(=O)[C@H](CCC(N)=O)NC(=O)[C@@H](NC(=O)[C@@H](N)[C@@H](C)O)C(C)C)C(=O)N[C@@H](Cc1ccc(O)cc1)C(=O)N[C@@H](CCC(N)=O)C(=O)N[C@@H](Cc1ccccc1)C(=O)N[C@H](C(=O)N[C@@H](CC(=O)O)C(=O)N[C@@H](CCCCN)C(=O)N[C@@H](CC(=O)O)C(=O)N[C@@H](CCCCN)C(=O)N[C@@H](CC(=O)O)C(=O)N[C@@H](CC(N)=O)C(=O)N[C@H](C(=O)N[C@@H](C)C(=O)N1CCC[C@H]1C(=O)N[C@@H](CCCNC(=N)N)C(=O)N[C@@H](CO)C(=O)N[C@@H](CCCCN)C(=O)N[C@H](C(=O)N[C@@H](CO)C(=O)N1CCC[C@H]1C(=O)N[C@@H](CCC(N)=O)C(=O)NCC(=O)N[C@@H](Cc1ccc(O)cc1)C(N)=O)[C@@H](C)CC)C(C)C)[C@@H](C)O [AM(22-52)NH2] | – | – | IC50 ([1]; AlphaScreen competition, text (Figs S1C, S1H), approximate, read-out: IC50): 5 to 15 µM; IC50 ([1]; Figure 6H, 100 nM protein, 100 nM biotin-AM, 0.3% Triton X-100, mean ± SEM, at least three independent experiments in duplicate, read-out: pIC50 (converted)): 12 µM; IC50 [2]: 5 to 15 µM
2 | – | CC(C)[C@H](NC(=O)[C@H](CC(=O)O)NC(=O)[C@@H](NC(=O)[C@@H]1CCCN1C(=O)[C@@H](NC(=O)[C@@H](N)Cc1ccccc1)C(C)C)[C@@H](C)O)C(=O)NCC(=O)N1CCC[C@H]1C(=O)N[C@@H](Cc1ccccc1)C(=O)N[C@@H](C)C(=O)N[C@@H](Cc1ccccc1)C(N)=O [CGRPmut] | – | – | IC50 [3]: 0.457 µM; apparent aggregation [4]: apparent aggregation
3 | – | AM(37–52)NH2 [Y52F]: C-terminal residue swap of minimal ECD complex-binding AM peptide | exhibited significantly diminished binding to the AM1 receptor ECD complex | did not gain increased affinity for the CGRP receptor ECD complex | –
4 | – | DKDNVAPRSKISPQGY-NH2 [AM(37–52)] | – | – | IC50 ([1]; Figure 6J, 100 nM protein, 100 nM biotin-AM, 0.3% Triton X-100, mean ± SEM, at least three independent experiments in duplicate, read-out: pIC50 (converted)): 10 µM
5 | 16.2 | FVPTDVGPFAY-NH2 [CGRPmut [F37Y]] | gained the ability to bind the AM1 receptor ECD complex as strongly as AM | retained CGRP receptor ECD complex binding | –
